# Activity calls are given as the source filed them.
# Columns and labels:
# [1] = biological target: T1, Type-1 angiotensin II receptor (Homo sapiens, UniProt P30556); test: AT1 receptor antagonists, dose response, selectivity assay for APJ receptor antagonist project, cell-based, uHTS hits (AID 463214); format: functional;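 further: antagonist potency against angiotensin II stimulated AT1 response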
# T1 sequence (P30556 whole entry): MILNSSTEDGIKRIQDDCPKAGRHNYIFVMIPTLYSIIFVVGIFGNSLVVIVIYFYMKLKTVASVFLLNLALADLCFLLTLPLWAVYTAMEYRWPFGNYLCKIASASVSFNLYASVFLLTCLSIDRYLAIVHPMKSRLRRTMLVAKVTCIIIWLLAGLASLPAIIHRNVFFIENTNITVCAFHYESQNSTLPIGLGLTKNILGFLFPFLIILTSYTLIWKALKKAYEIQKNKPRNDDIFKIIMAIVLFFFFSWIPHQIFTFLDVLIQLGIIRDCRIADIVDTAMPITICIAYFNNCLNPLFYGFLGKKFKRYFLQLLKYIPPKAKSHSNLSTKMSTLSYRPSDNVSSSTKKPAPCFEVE
# Streptococcus = test: Group A Streptococcus viability loss, dose response, counter-screen for streptokinase expression inhibitor project, luminescence, BacTiterGlo (AID 1915); format: functional, organism-based;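 further: potency for reduction of bacterial viability or growth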
# [2] = biological target: T2, Kappa-type opioid receptor (Homo sapiens, UniProt P41145); format: functional
# [3] = biological target: T2, Kappa-type opioid receptor; format: functional; remark: listed apart in the source
# [4] = test system: Streptococcus sp. 'group A'; test: growth inhibition of control SK(-) GAS strain, dose response, counter-screen for streptokinase expression inhibitor project, luminescence, kanamycin, BacTiterGlo, confirmation (AID 1900); format: functional, organism-based
# Beta-galactosidase [5] = biological target: T3, Beta-galactosidase (Escherichia coli, UniProt Q8VNN2); format: functional
# Beta-galactosidase [6] = biological target: T3, Beta-galactosidase; test: PubChem AID 485352; format: functional
# [7] = biological target: Peroxisome proliferator-activated receptor gamma/Nuclear receptor coactivator 2 (Homo sapiens, UniProt P37231); format: functional;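 further: agonist potency for raising coactivator recruitment to the receptor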
# [8] = biological target: Peroxisome proliferator-activated receptor gamma/Nuclear receptor coactivator 3 (Homo sapiens, UniProt P37231); format: functional;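 further: agonist potency for raising coactivator recruitment to the receptor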
# [9] = biological target: Peroxisome proliferator-activated receptor gamma/Nuclear receptor coactivator 1 (Homo sapiens, UniProt P37231); format: functional;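 further: agonist potency as compounds enhance coactivator SRC-1 recruitment to PPARgamma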
# Aminopeptidase N = biological target: T4, Aminopeptidase N (Plasmodium falciparum FcB1/Columbia, UniProt O96935); test: P. falciparum M1AAP inhibitors, biochemical, fluorogenic H-Leu-NHMec substrate, 1536-well (AID 1445); set-up: species or system Plasmodium falciparum 3D7, 3D7
# T4 sequence (O96935 whole entry): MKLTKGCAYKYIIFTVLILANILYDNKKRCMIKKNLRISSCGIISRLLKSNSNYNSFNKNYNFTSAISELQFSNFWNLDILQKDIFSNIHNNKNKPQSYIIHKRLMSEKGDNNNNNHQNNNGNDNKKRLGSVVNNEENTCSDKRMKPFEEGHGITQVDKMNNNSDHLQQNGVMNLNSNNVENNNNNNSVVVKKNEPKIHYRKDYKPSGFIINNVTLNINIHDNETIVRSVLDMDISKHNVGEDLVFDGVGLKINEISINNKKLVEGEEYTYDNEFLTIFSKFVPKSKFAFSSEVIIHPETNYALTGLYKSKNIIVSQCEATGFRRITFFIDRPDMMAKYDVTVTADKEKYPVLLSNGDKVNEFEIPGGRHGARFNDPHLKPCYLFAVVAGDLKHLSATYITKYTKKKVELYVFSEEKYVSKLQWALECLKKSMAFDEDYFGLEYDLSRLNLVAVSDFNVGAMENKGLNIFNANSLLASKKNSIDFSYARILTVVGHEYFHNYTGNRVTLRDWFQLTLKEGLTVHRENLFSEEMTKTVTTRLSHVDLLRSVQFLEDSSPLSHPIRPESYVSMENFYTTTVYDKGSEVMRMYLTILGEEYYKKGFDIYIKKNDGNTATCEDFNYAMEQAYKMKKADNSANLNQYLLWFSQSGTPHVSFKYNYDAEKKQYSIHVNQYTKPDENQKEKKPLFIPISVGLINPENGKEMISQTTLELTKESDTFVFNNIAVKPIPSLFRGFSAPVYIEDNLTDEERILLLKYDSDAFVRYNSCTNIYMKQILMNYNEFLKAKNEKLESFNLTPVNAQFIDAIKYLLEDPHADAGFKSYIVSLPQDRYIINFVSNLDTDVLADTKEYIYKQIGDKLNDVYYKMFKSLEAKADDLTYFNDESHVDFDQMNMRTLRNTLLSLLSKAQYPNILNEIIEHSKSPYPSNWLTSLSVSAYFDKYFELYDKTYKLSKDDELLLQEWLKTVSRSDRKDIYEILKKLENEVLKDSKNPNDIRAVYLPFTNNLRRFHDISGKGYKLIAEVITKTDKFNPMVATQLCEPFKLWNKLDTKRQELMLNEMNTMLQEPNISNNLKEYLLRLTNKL
# cells = format: functional
# [10] = biological target: DNA dC->dU-editing enzyme APOBEC-3A (Homo sapiens, UniProt P31941); test: Dose Response confirmation of small molecule APOBEC3A DNA Deaminase Inhibitors via a fluorescence-based single-stranded DNA deaminase assay. [Related pubchem assays (depositor defined):AID493011, AID493024]; format: functional
# [11] = biological target: DNA dC->dU-editing enzyme APOBEC-3G (Homo sapiens, UniProt Q9HC16); format: functional;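 further: Dose-response counterscreen measuring inhibition of APOBEC3G DNA deaminase activity, run while confirming APOBEC3A inhibitors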
# [12] = biological target: E3 ubiquitin-protein ligase Mdm2 (Homo sapiens, UniProt Q00987); test: enhancers of MDM2-luciferase reporter signal, concentration-effect titration, project on inhibitors of MDM2 ubiquitin ligase, cellular assay, luminescent readout, 384-well plate format (AID 1394); format: functional;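 further: MDM2 E3 inhibitors raise luminescence so EC50 is for signal enhancement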
# [13] = biological target: T5, Polyadenylate-binding protein 1 (Homo sapiens, UniProt P11940); test: PABP1 MLLE–PAM2 binding inhibitor potency, dose response, biochemical, fluorescence polarization, FITC-PAM2 peptide (AID 602259); format: functional; settings: read-out: IC50_Mean
# [14] = biological target: T5, Polyadenylate-binding protein 1; test: PABP1 MLLE–PAM2 interaction inhibitors, dose response, miRNA deadenylation inhibitor project, biochemical, fluorescence polarization, Cy5-PAM2 peptide, secondary (AID 602260); format: functional; settings: read-out: IC50_Mean
# [15] = biological target: Glyceraldehyde-3-phosphate dehydrogenase (Homo sapiens, UniProt P04406)
# [16] = A cytotoxicity screen of small molecule inhibitors of the PhoP region in Salmonella typhi identified in the primary screen. [Related pubchem assays: 1850, 1864, 1985 ]; format: functional
# Estrogen receptor beta = Estrogen receptor beta (Homo sapiens, UniProt Q92731);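 further: recombinant ER-beta bound to coactivator SRC1 peptide in presence of estradiol agonist; inhibitors block coactivator peptide binding and lower the FRET signal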
# Vero = Vero cell cytotoxicity, cytotoxicity control for flavivirus capping enzyme inhibitors (AID 588742); format: functional; settings: Chlorocebus sabaeus
# [17] = biological target: T6, Apoptotic protease-activating factor 1 (Homo sapiens, UniProt O14727); format: functional
# T6 sequence (O14727 whole entry): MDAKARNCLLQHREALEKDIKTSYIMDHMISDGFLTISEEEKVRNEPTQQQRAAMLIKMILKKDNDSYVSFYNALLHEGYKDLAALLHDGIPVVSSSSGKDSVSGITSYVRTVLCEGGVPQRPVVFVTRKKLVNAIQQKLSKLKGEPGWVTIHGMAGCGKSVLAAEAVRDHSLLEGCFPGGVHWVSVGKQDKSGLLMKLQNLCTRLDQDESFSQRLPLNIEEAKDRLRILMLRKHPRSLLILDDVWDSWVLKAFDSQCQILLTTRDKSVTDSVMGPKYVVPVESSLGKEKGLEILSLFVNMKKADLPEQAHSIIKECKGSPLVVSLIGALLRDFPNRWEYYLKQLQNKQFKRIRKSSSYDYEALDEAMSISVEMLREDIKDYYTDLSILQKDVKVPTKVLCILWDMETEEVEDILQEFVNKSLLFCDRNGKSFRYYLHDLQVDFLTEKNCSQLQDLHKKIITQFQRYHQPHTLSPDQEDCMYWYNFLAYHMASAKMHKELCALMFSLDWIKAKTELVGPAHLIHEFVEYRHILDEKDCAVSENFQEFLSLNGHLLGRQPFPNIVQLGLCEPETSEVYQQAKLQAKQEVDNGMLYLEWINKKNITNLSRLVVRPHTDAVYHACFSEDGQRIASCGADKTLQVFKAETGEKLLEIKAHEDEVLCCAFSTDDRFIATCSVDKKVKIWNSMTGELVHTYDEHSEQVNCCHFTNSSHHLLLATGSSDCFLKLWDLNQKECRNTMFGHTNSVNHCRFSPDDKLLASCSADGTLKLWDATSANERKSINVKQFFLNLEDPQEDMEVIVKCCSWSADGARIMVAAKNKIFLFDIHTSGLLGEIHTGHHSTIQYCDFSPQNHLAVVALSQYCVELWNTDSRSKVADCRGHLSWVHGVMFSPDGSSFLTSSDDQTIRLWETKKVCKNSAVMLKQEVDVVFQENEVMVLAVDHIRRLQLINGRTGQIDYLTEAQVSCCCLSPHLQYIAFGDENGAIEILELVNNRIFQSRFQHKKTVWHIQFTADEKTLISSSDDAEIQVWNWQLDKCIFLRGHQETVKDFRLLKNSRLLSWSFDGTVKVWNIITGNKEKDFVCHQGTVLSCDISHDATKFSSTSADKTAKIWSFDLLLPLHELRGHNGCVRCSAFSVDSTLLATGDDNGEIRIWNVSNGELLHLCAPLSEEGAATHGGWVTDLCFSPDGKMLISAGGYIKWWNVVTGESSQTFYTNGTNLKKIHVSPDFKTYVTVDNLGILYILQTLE
# [18] = THP-1 cell cytotoxicity, dose response, cytotoxicity control for Vif-APOBEC3G degradation inhibitor project, THP-1 cells (AID 1117359); format: functional; settings: Human immunodeficiency virus 1, THP-1
# [19] = biological target: Induced myeloid leukemia cell differentiation protein Mcl-1 (Homo sapiens, UniProt Q07820); format: functional
# Chain of DNA dC->dU-editing enzyme APOBEC-3A (P31941 whole entry): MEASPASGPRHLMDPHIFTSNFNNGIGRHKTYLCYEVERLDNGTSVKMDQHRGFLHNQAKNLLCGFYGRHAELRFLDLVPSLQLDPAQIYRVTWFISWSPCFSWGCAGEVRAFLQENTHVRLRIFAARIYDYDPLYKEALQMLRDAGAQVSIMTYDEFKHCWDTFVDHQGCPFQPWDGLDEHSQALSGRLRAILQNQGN
# T3 sequence (Q8VNN2 whole entry): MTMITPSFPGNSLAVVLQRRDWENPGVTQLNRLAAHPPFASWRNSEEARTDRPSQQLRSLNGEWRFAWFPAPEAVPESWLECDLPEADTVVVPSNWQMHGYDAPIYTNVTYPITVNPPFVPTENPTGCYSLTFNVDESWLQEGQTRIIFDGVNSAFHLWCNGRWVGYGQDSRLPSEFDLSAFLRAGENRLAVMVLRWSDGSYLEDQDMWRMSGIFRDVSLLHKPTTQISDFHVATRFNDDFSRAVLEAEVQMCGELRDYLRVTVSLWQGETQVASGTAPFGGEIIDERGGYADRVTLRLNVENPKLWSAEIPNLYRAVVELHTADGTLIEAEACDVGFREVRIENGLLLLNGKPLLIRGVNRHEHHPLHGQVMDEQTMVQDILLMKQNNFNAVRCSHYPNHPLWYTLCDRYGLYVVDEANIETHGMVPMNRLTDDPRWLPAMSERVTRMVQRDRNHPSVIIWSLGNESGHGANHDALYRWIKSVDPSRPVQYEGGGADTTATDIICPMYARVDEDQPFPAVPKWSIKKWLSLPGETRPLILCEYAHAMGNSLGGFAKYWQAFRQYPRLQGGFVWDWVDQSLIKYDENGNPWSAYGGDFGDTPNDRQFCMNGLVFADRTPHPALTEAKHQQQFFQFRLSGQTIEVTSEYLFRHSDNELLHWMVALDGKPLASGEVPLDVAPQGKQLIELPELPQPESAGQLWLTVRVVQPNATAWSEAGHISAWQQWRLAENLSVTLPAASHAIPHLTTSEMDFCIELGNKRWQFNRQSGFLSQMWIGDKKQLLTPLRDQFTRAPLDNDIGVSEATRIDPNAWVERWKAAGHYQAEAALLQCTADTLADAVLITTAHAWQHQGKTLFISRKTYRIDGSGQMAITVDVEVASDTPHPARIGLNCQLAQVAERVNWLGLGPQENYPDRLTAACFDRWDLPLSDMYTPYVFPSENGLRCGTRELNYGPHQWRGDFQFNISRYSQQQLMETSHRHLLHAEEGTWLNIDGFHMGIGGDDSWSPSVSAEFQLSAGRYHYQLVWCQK
# Chain of Peroxisome proliferator-activated receptor gamma/Nuclear receptor coactivator 2 (P37231 whole entry): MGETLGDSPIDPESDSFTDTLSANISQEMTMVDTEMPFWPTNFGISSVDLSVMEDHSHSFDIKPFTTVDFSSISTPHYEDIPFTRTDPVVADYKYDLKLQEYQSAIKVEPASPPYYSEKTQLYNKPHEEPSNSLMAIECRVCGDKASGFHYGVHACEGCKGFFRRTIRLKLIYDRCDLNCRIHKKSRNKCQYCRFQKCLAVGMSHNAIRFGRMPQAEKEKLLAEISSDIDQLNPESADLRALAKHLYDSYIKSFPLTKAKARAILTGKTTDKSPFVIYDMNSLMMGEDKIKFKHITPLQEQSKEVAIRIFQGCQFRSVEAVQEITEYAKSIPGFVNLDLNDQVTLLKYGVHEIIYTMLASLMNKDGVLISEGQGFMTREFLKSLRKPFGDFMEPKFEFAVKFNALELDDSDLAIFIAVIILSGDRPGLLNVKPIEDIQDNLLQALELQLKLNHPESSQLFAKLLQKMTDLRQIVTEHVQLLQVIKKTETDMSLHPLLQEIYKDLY
# Chain of Peroxisome proliferator-activated receptor gamma/Nuclear receptor coactivator 2 (Q15596 whole entry, further chain): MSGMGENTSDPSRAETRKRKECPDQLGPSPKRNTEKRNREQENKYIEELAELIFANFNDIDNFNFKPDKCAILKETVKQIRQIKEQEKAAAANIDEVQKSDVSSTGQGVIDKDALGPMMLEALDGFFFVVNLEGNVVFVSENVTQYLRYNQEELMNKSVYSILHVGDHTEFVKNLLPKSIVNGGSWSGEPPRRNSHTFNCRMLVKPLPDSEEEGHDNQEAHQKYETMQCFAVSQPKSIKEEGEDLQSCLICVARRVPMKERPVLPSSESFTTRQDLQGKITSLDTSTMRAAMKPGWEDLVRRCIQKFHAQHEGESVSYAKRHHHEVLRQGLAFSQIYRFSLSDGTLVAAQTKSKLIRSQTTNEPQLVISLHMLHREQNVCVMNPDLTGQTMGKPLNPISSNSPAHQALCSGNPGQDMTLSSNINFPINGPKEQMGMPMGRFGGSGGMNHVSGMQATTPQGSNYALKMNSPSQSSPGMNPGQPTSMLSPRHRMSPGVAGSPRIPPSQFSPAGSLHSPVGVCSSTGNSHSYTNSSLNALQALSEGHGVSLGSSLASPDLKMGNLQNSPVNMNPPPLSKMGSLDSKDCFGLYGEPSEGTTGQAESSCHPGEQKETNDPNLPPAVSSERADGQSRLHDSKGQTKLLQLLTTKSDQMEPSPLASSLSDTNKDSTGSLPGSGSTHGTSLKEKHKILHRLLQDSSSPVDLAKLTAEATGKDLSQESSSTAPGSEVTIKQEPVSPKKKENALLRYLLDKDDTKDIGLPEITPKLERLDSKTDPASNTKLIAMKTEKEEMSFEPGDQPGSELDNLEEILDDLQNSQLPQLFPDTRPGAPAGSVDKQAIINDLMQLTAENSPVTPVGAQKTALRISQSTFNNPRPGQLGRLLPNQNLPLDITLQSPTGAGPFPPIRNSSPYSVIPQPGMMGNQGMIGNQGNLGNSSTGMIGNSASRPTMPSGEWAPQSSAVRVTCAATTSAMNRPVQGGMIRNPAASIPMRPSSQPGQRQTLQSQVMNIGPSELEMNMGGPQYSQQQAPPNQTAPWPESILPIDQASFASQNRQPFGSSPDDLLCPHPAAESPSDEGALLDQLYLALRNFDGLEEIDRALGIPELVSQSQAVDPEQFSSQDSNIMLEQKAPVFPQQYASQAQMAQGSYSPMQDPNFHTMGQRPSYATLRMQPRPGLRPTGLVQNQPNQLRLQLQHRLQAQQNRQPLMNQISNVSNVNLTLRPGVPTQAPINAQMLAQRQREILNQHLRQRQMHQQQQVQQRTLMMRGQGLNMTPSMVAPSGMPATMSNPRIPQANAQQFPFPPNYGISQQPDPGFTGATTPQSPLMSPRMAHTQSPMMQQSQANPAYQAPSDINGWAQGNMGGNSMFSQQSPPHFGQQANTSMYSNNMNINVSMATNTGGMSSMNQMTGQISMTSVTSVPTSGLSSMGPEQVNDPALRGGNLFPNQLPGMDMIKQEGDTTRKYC
# Chain of DNA dC->dU-editing enzyme APOBEC-3G (Q9HC16 whole entry): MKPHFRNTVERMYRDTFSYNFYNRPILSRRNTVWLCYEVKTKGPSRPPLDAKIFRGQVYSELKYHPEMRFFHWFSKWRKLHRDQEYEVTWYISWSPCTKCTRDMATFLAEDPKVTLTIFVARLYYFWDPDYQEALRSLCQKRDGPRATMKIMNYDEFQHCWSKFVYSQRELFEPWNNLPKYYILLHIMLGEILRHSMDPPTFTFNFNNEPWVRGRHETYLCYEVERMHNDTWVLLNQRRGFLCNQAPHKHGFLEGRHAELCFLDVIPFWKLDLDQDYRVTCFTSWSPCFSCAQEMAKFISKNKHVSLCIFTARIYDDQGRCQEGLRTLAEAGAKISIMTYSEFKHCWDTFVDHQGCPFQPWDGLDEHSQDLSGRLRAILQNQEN
# T2 sequence (P41145 whole entry): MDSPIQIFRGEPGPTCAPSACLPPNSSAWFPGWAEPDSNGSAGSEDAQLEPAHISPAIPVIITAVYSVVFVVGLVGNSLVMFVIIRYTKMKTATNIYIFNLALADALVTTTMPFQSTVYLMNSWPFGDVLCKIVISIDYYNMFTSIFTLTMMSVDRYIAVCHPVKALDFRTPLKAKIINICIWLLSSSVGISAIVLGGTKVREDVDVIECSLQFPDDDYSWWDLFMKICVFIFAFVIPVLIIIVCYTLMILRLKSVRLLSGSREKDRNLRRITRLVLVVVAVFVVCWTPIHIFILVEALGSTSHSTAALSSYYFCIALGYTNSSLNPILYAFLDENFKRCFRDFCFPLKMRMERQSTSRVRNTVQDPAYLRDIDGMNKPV
# T5 sequence (P11940 whole entry): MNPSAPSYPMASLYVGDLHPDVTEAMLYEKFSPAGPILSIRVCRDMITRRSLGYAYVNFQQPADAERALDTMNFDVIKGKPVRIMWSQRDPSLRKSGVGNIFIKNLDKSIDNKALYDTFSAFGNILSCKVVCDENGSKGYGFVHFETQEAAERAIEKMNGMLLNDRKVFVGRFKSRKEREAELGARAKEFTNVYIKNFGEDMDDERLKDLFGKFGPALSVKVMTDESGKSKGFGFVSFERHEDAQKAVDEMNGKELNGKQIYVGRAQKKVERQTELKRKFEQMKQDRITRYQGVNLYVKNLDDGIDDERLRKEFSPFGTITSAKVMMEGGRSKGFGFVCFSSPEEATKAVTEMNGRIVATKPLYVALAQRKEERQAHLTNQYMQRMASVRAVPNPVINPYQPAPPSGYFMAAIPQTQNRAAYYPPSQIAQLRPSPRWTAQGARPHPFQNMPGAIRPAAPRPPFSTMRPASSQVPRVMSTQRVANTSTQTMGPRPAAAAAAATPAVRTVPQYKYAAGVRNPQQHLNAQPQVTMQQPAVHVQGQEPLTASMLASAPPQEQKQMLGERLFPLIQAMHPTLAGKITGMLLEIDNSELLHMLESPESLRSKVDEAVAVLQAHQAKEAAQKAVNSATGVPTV
# Chain of Glyceraldehyde-3-phosphate dehydrogenase (P04406 whole entry): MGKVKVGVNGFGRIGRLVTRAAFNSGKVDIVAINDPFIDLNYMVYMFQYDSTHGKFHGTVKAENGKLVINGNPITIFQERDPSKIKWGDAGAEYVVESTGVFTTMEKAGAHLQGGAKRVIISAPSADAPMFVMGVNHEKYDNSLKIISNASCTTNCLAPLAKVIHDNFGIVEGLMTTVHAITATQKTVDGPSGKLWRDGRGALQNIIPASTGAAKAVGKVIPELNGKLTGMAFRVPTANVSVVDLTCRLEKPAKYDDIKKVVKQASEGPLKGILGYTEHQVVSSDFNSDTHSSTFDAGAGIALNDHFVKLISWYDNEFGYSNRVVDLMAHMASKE
compound,measurement,setting,value
CCCOc1cccc(-c2cc(C(=O)N/N=C/c3ccccn3)c3ccccc3n2)c1,IC50,[1],5.9 µM (active)
same,EC50,Streptococcus,2.21 µM (active)
same,IC50,[2],> 32 µM
same,IC50,[3],8.44 µM (active)
same,EC50,[4],1.95 µM (active)
same,EC50,Beta-galactosidase [5],> 31.5 µM (inactive)
same,EC50,Beta-galactosidase [6],> 40 µM (inactive)
Cc1nnc(O)nc1N/N=C/c1cccs1,EC50,[7],> 79.4 µM (not active)
same,EC50,[8],> 79.4 µM (not active)
same,EC50,[9],> 79.4 µM (not active)
same,IC50,Aminopeptidase N,25.8 µM (active)
CCOC(=O)c1ccc(COC(=O)c2cc3ccccc3oc2=O)o1,IC50,cells,> 50 µM (active)
COCCN(CC(=O)Nc1cccc(C)c1C)C(=O)CN1C(=O)NC2(CCCCC2)C1=O,IC50,[10],11.1 µM (active)
same,IC50,[11],12.2 µM (active)
O=C(CSc1ccc(-c2ccco2)nn1)NC1CCCC1,EC50,[12],0.75 µM (not active)
CCOc1ccc(-c2csc(NNC3=NCCCCC3)n2)cc1,IC50,[13],> 66 µM (inactive)
same,EC50,[7],> 79.4 µM (not active)
same,EC50,[8],> 79.4 µM (not active)
same,IC50,[14],> 66 µM (inactive)
same,EC50,[9],> 79.4 µM (not active)
O=C(CSc1ncnc2nc[nH]c12)Nc1ccccc1C(F)(F)F,IC50,[10],50.8 µM (active)
same,IC50,[11],93.7 µM (active)
Cc1oc(C(=O)O)cc1COc1ccc2c(oc(=O)c3ccccc32)c1C,IC50,[15],> 100 µM (not active)
CSC(=S)N/N=C(\C)c1ccccc1,IC50,[2],> 32 µM
same,IC50,[3],8.37 µM (active)
same,EC50,Beta-galactosidase [5],> 31.5 µM (inactive)
CS(=O)(=O)N(CCc1ccccc1)CC(=O)Nc1ccc2c(c1)OCO2,EC50,[16],> 50 µM (active)
c1ccc(CSc2ccc(-c3cccs3)nn2)nc1,EC50,[16],> 50 µM (active)
CCOc1nc(-c2ccccc2)ccc1-c1noc(-c2cccs2)n1,EC50,[7],21.2 µM (not active)
same,EC50,[8],29.6 µM (not active)
same,EC50,[9],25.8 µM (not active)
CSCCC(NC(=O)c1ccco1)C(=O)OCC(=O)Nc1sccc1C#N (stereo not given),IC50,Estrogen receptor beta,16.5 µM (active)
CC(C)=CCN1CCN(Cc2nc(-c3ccccc3)cs2)CC1CCO (stereo not given),EC50,[16],> 50 µM (active)
CCC(=O)Nc1cc(C(=O)O)ccc1S(=O)(=O)c1ccc(C)cc1,IC50,[10],16.4 µM (active)
same,IC50,[11],42.2 µM (active)
N=C(NOS(=O)(=O)c1ccc(Cl)cc1)c1cccnc1,EC50,[16],> 50 µM (active)
O=C1NN(c2cccc(Cl)c2)C(=O)/C1=C\c1ccc(-c2cccc(C(=O)O)c2)o1,IC50,[15],> 100 µM (not active)
O=C(Nc1ccncc1)Nc1ccncc1,EC50,[12],8.86 µM (not active)
CCOC(=O)c1nn(-c2ccc(Cl)cc2)c2nc(-c3ccc(C)cc3)c(C#N)c(=O)n12,EC50,[7],> 79.4 µM (not active)
same,EC50,[8],> 79.4 µM (not active)
same,EC50,[9],> 79.4 µM (not active)
Cc1ccc2c(c1)c1ccc3c(c1n2C)C(=O)C=CC3=O,IC50,[13],> 66 µM (inactive)
same,CC50,Vero,27.3 µM (active)
same,IC50,[17],51.8 µM (active)
same,IC50,[14],> 66 µM (inactive)
same,CC50,[18],12.5 µM (active)
same,IC50,[19],1.51 µM (active)
same,EC50,[12],958 µM (active)
COc1ccc(CCNC(=O)CN(C2CCCCC2)S(C)(=O)=O)cc1OC,IC50,[10],4.1 µM (active)
same,IC50,[11],5.58 µM (active)

# Source: ChEMBL document CHEMBL1201862, “PubChem BioAssay data set” (2004)
